In patent US9447087B2, “Galactokinase inhibitors for the treatment and prevention of associated diseases and disorders” (UNIVERSITY OF UTAH RESEARCH FOUNDATION, priority 2011, dated 2016):

Key:
GALK = GALK (Homo sapiens (Human), UniProt P51570); assay: primary qHTS assay for inhibitors of GALK (KinaseGlo ATP depletion); format: biochemical; parameters: GALK Assay Efficacy: unit not given here; details: 5 nM GALK, 35 μM ATP, 1 hr incubation
Method: Assay details and protocol: The primary assay monitored ATP depletion using Promega's KinaseGlo™ technology, where ATP levels are measured through luminescence generated from firefly luciferase, a bioluminescent ATP-dependent enzymes. […] This was used as the positive control for the assay. […]

HEK293 cells = assay: cytotoxicity, Promega CellTiter Glo on HEK293 cells (PubChem ID 2547); format: cell-based; details: analyzed after 48 hours
Method: The selectivity for these analogs against CDP-ME kinase, another member of the GHMP kinase family, was performed using a bioluminescent Kinase Glo™ assay that detects ATP depletion after kinase reaction (PubChem ID 2506). […] All analogs were also tested for cytotoxicity using Promega CellTiter Glo on HEK293 cells that were treated with compounds and analyzed after 48 hours.

Chain of GALK (P51570 whole entry): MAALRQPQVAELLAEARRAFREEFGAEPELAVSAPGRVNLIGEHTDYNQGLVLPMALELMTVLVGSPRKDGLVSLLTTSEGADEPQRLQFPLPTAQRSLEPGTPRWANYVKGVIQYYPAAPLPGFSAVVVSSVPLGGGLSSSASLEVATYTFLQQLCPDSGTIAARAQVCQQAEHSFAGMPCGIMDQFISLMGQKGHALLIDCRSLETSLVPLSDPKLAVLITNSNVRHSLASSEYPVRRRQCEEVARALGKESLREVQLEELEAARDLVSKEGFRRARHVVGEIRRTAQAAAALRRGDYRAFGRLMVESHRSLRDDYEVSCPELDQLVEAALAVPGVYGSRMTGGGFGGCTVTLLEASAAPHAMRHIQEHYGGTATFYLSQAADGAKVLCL

| SMILES | IC50 (GALK) | cytotoxic effect on HEK293 cells (HEK293 cells) | GALK Assay Efficacy (GALK) |
| --- | --- | --- | --- |
| O=C1CCCC2=C1C1(CCC1)N=C(Nc1nc3ccccc3o1)N2 [Compound 3] | 16.8 µM | no cytotoxic effect |  |
| O=C1CCCC2=C1C1(CCCC1)N=C(Nc1nc3ccccc3o1)N2 [Compound 4] |  | no cytotoxic effect |  |
| CC1(C)N=C(Nc2nc3ccccc3o2)NC2=C1C(=O)CCC2 [Compound 5] | 32.6 µM |  |  |
| O=C1CC(c2ccccc2)CC2=C1C1(CCCCC1)N=C(Nc1nc3ccccc3o1)N2 (stereo not drawn) [Compound 6] | 42.1 µM | no cytotoxic effect |  |
| CC1(C)CC(=O)C2=C(C1)NC(Nc1nc3ccccc3o1)=NC21CCCCC1 [Compound 7] | 5.17 µM |  |  |
| CC1(C)CC(=O)C2=C(C1)NC(Nc1nc3ccccc3o1)=NC21CCCC1 [Compound 8] | 6.68 µM | no cytotoxic effect |  |
| O=C1CCC2=C1C1(CCCC1)N=C(Nc1nc3ccccc3o1)N2 [Compound 10] | 13.3 µM | no cytotoxic effect |  |
| O=C1CCCC2=C1[C@@]1(CCC(c3ccccc3)C1)N=C(Nc1nc3ccccc3o1)N2 (stereo partly drawn) [Compound 12] | 47.3 µM |  |  |
| CC1CCC2(C1)N=C(Nc1nc3ccccc3o1)NC1=C2C(=O)CCC1 (stereo not drawn) [Compound 14] | 11.9 µM |  |  |
| O=C1CCC2=C1C(c1ccccc1Cl)N=C(Nc1nc3ccccc3o1)N2 (stereo not drawn) [Compound 16] | 9.43 µM |  |  |
| O=C1CCCC2=C1C(c1ccccc1Cl)N=C(Nc1nc3ccccc3o1)N2 (stereo not drawn) [Compound 17] | 0.595 µM |  |  |
| O=C1CCCC2=C1C1(CCSC1)N=C(Nc1nc3ccccc3o1)N2 (stereo not drawn) [Compound 21] | 2.66 µM |  |  |
| O=C1CCCC2=C1C1(CCSCC1)N=C(Nc1nc3ccccc3o1)N2 [Compound 22] | 1.06 µM |  |  |
| O=C1CCCC2=C1C1(CCCOC1)N=C(Nc1nc3ccccc3o1)N2 (stereo not drawn) [Compound 23] | 33.5 µM |  |  |
| O=C1CCCC2=C1C1(CCS(=O)(=O)C1)N=C(Nc1nc3ccccc3o1)N2 (stereo not drawn) [Compound 24, 2-(benzo[d]oxazol-2-ylamino)-4′,5′,7,8-tetrahydro-1H,2′H-spiro[quinazoline-4,3′-thiophen-1,1-dioxide]-5(6H)-one] | 6.68 µM |  | 67.583 |
| O=C1CCCC2=C1C(c1cccc(Cl)c1)N=C(Nc1nc3ccccc3o1)N2 (stereo not drawn) [Compound 37] | 61.1 µM |  |  |
| O=C1CCCC2=C1C(c1ccc(Cl)cc1)N=C(Nc1nc3ccccc3o1)N2 (stereo not drawn) [Compound 38] | 68.5 µM |  |  |
| O=C1CCCC2=C1C(c1ccccc1C(F)(F)F)N=C(Nc1nc3ccccc3o1)N2 (stereo not drawn) [Compound 39] | 12.2 µM |  |  |
| O=C1CCCC2=C1C(c1cccc(C(F)(F)F)c1)N=C(Nc1nc3ccccc3o1)N2 (stereo not drawn) [Compound 40] | 16.8 µM |  |  |
| O=C1CCCC2=C1C(c1ccccc1Br)N=C(Nc1nc3ccccc3o1)N2 (stereo not drawn) [Compound 41] | 0.749 µM |  |  |
| O=C1CCCC2=C1C(c1cccc(F)c1)N=C(Nc1nc3ccccc3o1)N2 (stereo not drawn) [Compound 42] | 68.5 µM |  |  |
| COc1ccccc1C1N=C(Nc2nc3ccccc3o2)NC2=C1C(=O)CCC2 (stereo not drawn) [Compound 43] | 48.5 µM |  |  |
| COc1cccc(C2N=C(Nc3nc4ccccc4o3)NC3=C2C(=O)CCC3)c1 (stereo not drawn) [Compound 44] | 18.8 µM |  |  |
| COc1ccc(C2N=C(Nc3nc4ccccc4o3)NC3=C2C(=O)CCC3)cc1 (stereo not drawn) [Compound 45] | 61.1 µM |  |  |
| Cc1cccc(C2N=C(Nc3nc4ccccc4o3)NC3=C2C(=O)CCC3)c1 (stereo not drawn) [Compound 46] | 61.1 µM |  |  |
| Cc1ccc(C2N=C(Nc3nc4ccccc4o3)NC3=C2C(=O)CCC3)cc1 (stereo not drawn) [Compound 47] | 61.1 µM |  |  |

| SMILES | IC50 (GALK) | cytotoxic effect on HEK293 cells (HEK293 cells) | GALK Assay Efficacy (GALK) |
| --- | --- | --- | --- |
| Cc1ccc(C2N=C(Nc3nc4ccccc4o3)NC3=C2C(=O)CCC3)s1 (stereo not drawn) [Compound 48] | 61.1 µM |  |  |
| O=C1CCCC2=C1C(c1ccncc1)N=C(Nc1nc3ccccc3o1)N2 (stereo not drawn) [Compound 50] | 42.1 µM |  |  |
| O=C1CCCC2=C1C(c1ccc(F)cc1)N=C(Nc1nc3ccccc3o1)N2 (stereo not drawn) [Compound 51] | 61.1 µM |  |  |
| O=C1CCCC2=C1C(c1ccccc1)N=C(Nc1nc3ccccc3o1)N2 (stereo not drawn) [Compound 52] | 34.3 µM |  |  |
| CN(C)c1ccc(C2N=C(Nc3nc4ccccc4o3)NC3=C2C(=O)CCC3)cc1 (stereo not drawn) [Compound 53] | 76.9 µM |  |  |
| O=C1CCCC2=C1C(c1ccncc1Cl)N=C(Nc1nc3ccccc3o1)N2 (stereo not drawn) [Compound 55] | 15.3 µM |  |  |
| O=C1CCCC2=C1C(c1ccccc1Cl)N=C(Nc1nc3ccccc3o1)N2 (stereo not drawn) [Compound 57] | 2.66 µM |  |  |
| O=C1CCCC2=C1C(c1ncccc1C(F)(F)F)N=C(Nc1nc3ccccc3o1)N2 (stereo not drawn) [Compound 58] | 6.68 µM |  |  |
| O=C1CCCC2=C1C(c1cnccc1C(F)(F)F)N=C(Nc1nc3ccccc3o1)N2 (stereo not drawn) [Compound 59] | 6.68 µM |  |  |
| O=C1CCCC2=C1C(c1c(Cl)cccc1Cl)N=C(Nc1nc3ccccc3o1)N2 (stereo not drawn) [Compound 60] | 13 µM |  |  |
| O=C1CCCC2=C1C(c1cccnc1Cl)N=C(Nc1nc3ccccc3o1)N2 (stereo not drawn) [Compound 61] | 18.8 µM |  |  |
| O=C1CCCC2=C1C(c1cccnc1Br)N=C(Nc1nc3ccccc3o1)N2 (stereo not drawn) [Compound 63] | 14.6 µM |  |  |
| Cn1ncc(Cl)c1C1N=C(Nc2nc3ccccc3o2)NC2=C1C(=O)CCC2 (stereo not drawn) [Compound 64] | 36.6 µM |  |  |
| Cc1ccsc1C1N=C(Nc2nc3ccccc3o2)NC2=C1C(=O)CCC2 (stereo not drawn) [Compound 65] | 9.19 µM |  |  |
| O=C1CCCC2=C1C(c1ccccc1I)N=C(Nc1nc3ccccc3o1)N2 (stereo not drawn) [Compound 66] | 1.16 µM |  |  |
| O=C1CCCC2=C1C(c1ncccc1Br)N=C(Nc1nc3ccccc3o1)N2 (stereo not drawn) [Compound 67] | 0.651 µM |  |  |
| O=C1CCCC2=C1C(c1ccncc1Br)N=C(Nc1nc3ccccc3o1)N2 (stereo not drawn) [Compound 68] | 1.46 µM |  |  |
| O=C1CCCC2=C1C(c1n[nH]cc1Br)N=C(Nc1nc3ccccc3o1)N2 (stereo not drawn) [Compound 69] | 2.91 µM |  |  |
| Cn1cc(Br)c(C2N=C(Nc3nc4ccccc4o3)NC3=C2C(=O)CCC3)n1 (stereo not drawn) [Compound 70] | 2.91 µM |  |  |
| O=C1CCCC2=C1C(c1ccncc1Br)N=C(Nc1nc3ccccc3o1)N2 (stereo not drawn) [Compound 71] | 20.6 µM |  |  |
| O=C1CCCC2=C1C(c1ccn[nH]1)N=C(Nc1nc3ccccc3o1)N2 (stereo not drawn) [Compound 73] | 14.6 µM |  |  |
| Cc1cc(C2N=C(Nc3nc4ccccc4o3)NC3=C2C(=O)CCC3)n[nH]1 (stereo not drawn) [Compound 74] | 18.3 µM |  |  |
| O=C1CCCC2=C1C(c1n[nH]cc1Cl)NC(Nc1nc3ccccc3o1)=N2 (stereo not drawn) [Compound 75] | 2.91 µM |  |  |
| CC1=C(C(=O)Nc2ccccc2Cl)C(c2ccccc2Br)N=C(Nc2nc3ccccc3o2)N1 (stereo not drawn) [Compound 76] | 3.26 µM |  |  |
| CC1=C(C(=O)Nc2ccc(Cl)cc2)C(c2ccccc2Br)N=C(Nc2nc3ccccc3o2)N1 (stereo not drawn) [Compound 77] | 5.17 µM |  |  |
| CC1=C(C(=O)Nc2ccccc2C)C(c2ccccc2Br)N=C(Nc2nc3ccccc3o2)N1 (stereo not drawn) [Compound 78] | 4.61 µM |  |  |

| SMILES | IC50 (GALK) | cytotoxic effect on HEK293 cells (HEK293 cells) | GALK Assay Efficacy (GALK) |
| --- | --- | --- | --- |
| COc1ccc(NC(=O)C2=C(C)NC(Nc3nc4ccccc4o3)=NC2c2ccccc2Br)cc1 (stereo not drawn) [Compound 81] | 3.26 µM |  |  |
| CC1=C(C(=O)n2ccc3ccccc32)C(c2ccccc2Br)N=C(Nc2nc3ccccc3o2)N1 (stereo not drawn) [Compound 82] | 18.3 µM |  |  |
| CC1=C(C(=O)N(C)c2ccccc2C)C(c2ccccc2Br)N=C(Nc2nc3ccccc3o2)N1 (stereo not drawn) [Compound 83] | 10.3 µM |  |  |
| CC1=C(C(=O)Nc2ccon2)C(c2ccccc2Br)N=C(Nc2nc3ccccc3o2)N1 (stereo not drawn) [Compound 84] | 5.8 µM |  |  |
| CC1=C(C(=O)Nc2nncs2)C(c2ccccc2Br)N=C(Nc2nc3ccccc3o2)N1 (stereo not drawn) [Compound 86] | 3.26 µM |  |  |
| CC1=C(C(=O)NC2CCCCC2)C(c2ccccc2Br)N=C(Nc2nc3ccccc3o2)N1 (stereo not drawn) [Compound 89] | 9.19 µM |  |  |
| CC1=C(C(=O)Nc2ccccc2)C(c2ccccc2Br)N=C(Nc2nc3ccccc3o2)N1 (stereo not drawn) [Compound 90] | 9.19 µM |  |  |
| CC1=C(C(=O)N(C)C)C(c2ccccc2Br)N=C(Nc2nc3ccccc3o2)N1 (stereo not drawn) [Compound 91] | 20.6 µM |  |  |
| CC1=C(C(=O)NCc2ccccc2)C(c2ccccc2Br)N=C(Nc2nc3ccccc3o2)N1 (stereo not drawn) [Compound 92] | 6.51 µM |  |  |
| CC1=C(C(=O)Nc2nncs2)C2(CCCC2)N=C(Nc2nc3ccccc3o2)N1 [Compound 93] | 3.26 µM |  |  |
| CC1=C(C(=O)Nc2ccon2)C2(CCCC2)N=C(Nc2nc3ccccc3o2)N1 [Compound 94] | 6.51 µM |  |  |
| CC1=C(C(=O)Nc2nc3ccccc3s2)C2(CCCC2)N=C(Nc2nc3ccccc3o2)N1 [Compound 95] | 25.9 µM |  |  |
| CC1=C(C(=O)Nc2ccon2)C(c2nn(C)cc2Cl)N=C(Nc2nc3ccccc3o2)N1 (stereo not drawn) [Compound 97] | 8.19 µM |  |  |
| CC1=C(C(=O)Nc2nc3ccccc3s2)C(c2nn(C)cc2Cl)N=C(Nc2nc3ccccc3o2)N1 (stereo not drawn) [Compound 98] | 9.19 µM |  |  |
| CC1=C(C(=O)Nc2nnc(-c3ccccc3)s2)C(c2nn(C)cc2Cl)N=C(Nc2nc3ccccc3o2)N1 (stereo not drawn) [Compound 100] | 3.66 µM |  |  |
| CC1=C(C(=O)NC2CC2)C(c2nn(C)cc2Cl)N=C(Nc2nc3ccccc3o2)N1 (stereo not drawn) [Compound 101] | 18.3 µM |  |  |
| CC1=C(C(=O)Nc2nncs2)C(c2nn(C)cc2Cl)N=C(Nc2nc3ccccc3o2)N1 (stereo not drawn) [Compound 102] | 5.17 µM |  |  |
| CNC(=O)C1=C(C)NC(Nc2nc3ccccc3o2)=NC1c1nn(C)cc1Cl (stereo not drawn) [Compound 105] | 16.3 µM |  |  |
| CC1=C(C(=O)Nc2nc3ccccc3s2)C(c2n[nH]cc2Cl)N=C(Nc2nc3ccccc3o2)N1 (stereo not drawn) [Compound 107] | 11.6 µM |  |  |
| CC1=C(C(=O)Nc2nnc(-c3ccccc3)s2)C(c2n[nH]cc2Cl)N=C(Nc2nc3ccccc3o2)N1 (stereo not drawn) [Compound 108] | 5.17 µM |  |  |
| CNC(=O)C1=C(C)NC(Nc2nc3ccccc3o2)=NC1c1n[nH]cc1Cl (stereo not drawn) [Compound 109] | 18.3 µM |  |  |
| CC1=C(C(=O)NC2CC2)C(c2n[nH]cc2Cl)N=C(Nc2nc3ccccc3o2)N1 (stereo not drawn) [Compound 110] | 20.6 µM |  |  |
| CNC(=O)C1=C(C)NC(Nc2nc3ccccc3o2)=NC12CCCC2 [Compound 111] | 20.6 µM |  |  |
| CC1=C(C(=O)Nc2ccon2)C(c2nn(C)cc2Cl)N=C(Nc2nc3ccccc3o2)N1 (stereo not drawn) [Compound 112] | 9.19 µM |  |  |
